Experimental data from patent publication US20070004763A1, “AMINOQUINOLINE AND AMINOQUINAZOLINE KINASE MODULATORS” (priority 2005, published 2007).

These compounds were tested against T1, TrkB (Homo sapiens, UniProt Q16620) (assay: Trk B Fluorescence Polarization Kinase Assay). Details: 150 uM ATP, 50 nM TrkB; uncertainty ±10%.
T1 construct: purchased Upstate 14-507M
Type: biochemical
Experimental: The compounds of the present invention are also specific inhibitors of TrkB. Selection of preferred compounds of Formula I for use as TrkB inhibitors was performed in the following manner. The TrkB assay utilized the fluorescein-labeled phosphopeptide and the anti-phosphotyrosine antibody included in the Panvera Phospho-Tyrosine Kinase Kit (Green) supplied by Invitrogen. When TrkB phosphorylated poly Glu4Tyr, the fluorescein-labeled phosphopeptide was displaced from the anti-phosphotyrosine antibody by the phosphorylated poly Glu4Tyr, thus decreasing the FP value. The TrkB kinase reaction was incubated at room temperature for 30 minutes under the following conditions: 50 nM TrkB (Upstate, catalog #14-507M), 20 ug/mL poly Glu4Tyr, 150 uM ATP, 5 mM MgCl2, 1% compound in DMSO. The kinase reaction was stopped with the addition of EDTA. The fluorescein-labeled phosphopeptide and the anti-phosphotyrosine antibody were added and incubated for 30 minutes at room temperature. Data points were an average of triplicate samples. Inhibition and IC50 data analysis were done with GraphPad Prism using a non-linear regression fit with a multiparamater, sigmoidal dose-response (variable slope) equation.

T1 sequence (Q16620 526-822 limits assumed): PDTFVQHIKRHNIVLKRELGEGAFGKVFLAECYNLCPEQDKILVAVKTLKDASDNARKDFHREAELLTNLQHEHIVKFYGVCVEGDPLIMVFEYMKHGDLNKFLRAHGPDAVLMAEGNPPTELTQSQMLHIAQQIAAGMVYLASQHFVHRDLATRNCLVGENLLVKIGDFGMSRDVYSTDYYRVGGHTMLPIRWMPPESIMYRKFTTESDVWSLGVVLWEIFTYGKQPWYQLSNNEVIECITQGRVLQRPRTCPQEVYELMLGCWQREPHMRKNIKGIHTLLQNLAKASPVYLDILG

Point of comparison: `CC(C)c1ccc(NC(=O)OC2CCN(c3ccnc4ccccc34)CC2)cc1` [Compound 10], IC50 6.5 µM. Against it:
- COc1cc2ncnc(N3CCC(OC(=O)Nc4ccc(C(C)C)cc4)CC3)c2cc1OC [Compound 1, (4-Isopropyl-phenyl)-carbamic acid 1-(6,7-dimethoxy-quinazolin-4-yl)-piperidin-4-yl ester] — within 1.5-fold, 5.72 µM
- COc1cc2ncnc(N3CCC(OC(=O)Nc4ccc(C(C)C)cc4)C3)c2cc1OC (stereo not shown) [Compound 2, (4-Isopropyl-phenyl)-carbamic acid 1-(6,7-dimethoxy-quinazolin-4-yl)-pyrrolidin-3-yl ester] — 1.8-fold lower, 3.7 µM
- COc1cc2ncnc(N3CCC(OC(=O)Nc4ccc(OC(C)C)cc4)CC3)c2cc1OC [Compound 3, (4-Isopropoxy-phenyl)-carbamic acid 1-(6,7-dimethoxy-quinazolin-4-yl)-piperidin-4-yl ester] — within 1.5-fold, 5.8 µM
- COc1cc2ncnc(N3CCCC(COC(=O)Nc4ccc(C(C)C)cc4)C3)c2cc1OC (stereo not shown) [Compound 4] — within 1.5-fold, 8.4 µM
- COc1cc2ncnc(N3CCC(CC(=O)Nc4ccc(C(C)C)cc4)CC3)c2cc1OC [Compound 5, 2-[1-(6,7-Dimethoxy-quinazolin-4-yl)-piperidin-4-yl]-N-(4-isopropyl-phenyl)-acetamide] — 2.7-fold lower, 2.4 µM
- COc1cc2ncnc(N3CCC(CC(=O)Nc4ccc(C(C)C)cc4)C3)c2cc1OC (stereo not shown) [Compound 6, 2-[11-(6,7-Dimethoxy-quinazolin-4-yl)-pyrrolidin-3-yl]-N-(4-isopropyl-phenyl)-acetamide] — 65-fold lower, 0.1 µM
- COc1cc2ncnc(N3CCC(NC(=O)Nc4ccc(OC(C)C)cc4)C3)c2cc1OC (stereo not shown) [Compound 8, 1-[1-(6,7-Dimethoxy-quinazolin-4-yl)-pyrrolidin-3-yl]-3-(4-isopropoxy-phenyl)-urea] — 1.8-fold lower, 3.65 µM
- COc1cc2ncnc(N3CCCC3COC(=O)Nc3ccc(C(C)C)cc3)c2cc1OC (stereo not shown) [Compound 9] — 32-fold lower, 0.2 µM
- COc1cc2ncnc(N3CCC(OC(=O)Nc4ccc(OC5CCC5)nc4)CC3)c2cc1OC [Compound 11, (6-Cyclobutoxy-pyridin-3-yl)-carbamic acid 1-(6,7-dimethoxy-quinazolin-4-yl)-piperidin-4-yl ester] — within 1.5-fold, 8.6 µM
- COc1cc2ncnc(N3CCC(OC(=O)Nc4ccc(OC5CCC5)nc4)C3)c2cc1OC (stereo not shown) [Compound 12, (6-Cyclobutoxy-pyridin-3-yl)-carbamic acid 1-(6,7-dimethoxy-quinazolin-4-yl)-pyrrolidin-3-yl ester] — 3.3-fold higher, 21.7 µM
- COc1cc2ncnc(N3CCC(C(=O)Nc4ccc(C(C)C)cc4)CC3)c2cc1OC [Compound 13, 1-(6,7-Dimethoxy-quinazolin-4-yl)-piperidine-4-carboxylic acid (4-isopropyl-phenyl)-amide] — 41-fold lower, 0.16 µM
- CC(C)c1ccc(NC(=O)OC2CCN(c3ncnc4ccc(C#CCO)cc34)C2)cc1 (stereo not shown) [Compound 14, (4-Isopropyl-phenyl)-carbamic acid 1-[6-(3-hydroxy-prop-1-ynyl)-quinazolin-4-yl]-pyrrolidin-3-yl ester] — 16-fold lower, 0.4 µM
- COc1cc2ncnc(N3CCC(OC(=O)Nc4ccc(OC(C)C)cc4)C3)c2cc1OC (stereo not shown) [Compound 15, (4-Isopropoxy-phenyl)-carbamic acid 1-(6,7-dimethoxy-quinazolin-4-yl)-pyrrolidin-3-yl ester] — 1.9-fold higher, 12.5 µM
- CC(C)c1ccc(NC(=O)NC2CCN(c3ncnc4ccccc34)C2)cc1 (stereo not shown) [Compound 16, 1-(4-Isopropyl-phenyl)-3-(1-quinazolin-4-yl-pyrrolidin-3-yl) urea] — 2.7-fold lower, 2.4 µM
- CCN(CC)CC#Cc1ccc2ncnc(N3CCC(OC(=O)Nc4ccc(C(C)C)cc4)C3)c2c1 (stereo not shown) [Compound 17, (4-Isopropyl-phenyl)-3-carbamic acid 1-[6-(3-diethylamino-prop-1-ynyl)-quinazolin-4-yl]-pyrrolidin-3-yl ester] — 1.8-fold lower, 3.6 µM
- COc1cc2ncnc(N3CCC(CNC(=O)Nc4ccc(C(C)C)cc4)CC3)c2cc1OC [Compound 18, 1-[1-(6,7-Dimethoxy-quinazolin-4-yl)-piperidin-4-ylmethyl]-3-(4-isopropyl-phenyl)-urea] — 13-fold lower, 0.5 µM
- CC(C)c1ccc(NC(=O)OC2CCN(c3ncnc4ccc(I)cc34)C2)cc1 (stereo not shown) [Compound 20, (4-Isopropyl-phenyl)-carbamic acid 1-(6-iodo-quinazolin-4-yl)-pyrrolidin-3-yl ester] — 2-fold higher, 13.1 µM
- COc1cc2ncnc(N3CCC(NC(=O)Cc4ccc(C(C)C)cc4)CC3)c2cc1OC [Compound 21, N-[1-(6,7-Dimethoxy-quinazolin-4-yl)-piperidin-4-yl]-2-(4-isopropyl-phenyl)-acetamide] — 1.7-fold higher, 11.2 µM
- COc1cc2ncnc(N3CCC(COC(=O)Nc4ccc(C(C)C)cc4)CC3)c2cc1OC [Compound 22, (4-Isopropyl-phenyl)-carbamic acid 1-(6,7-dimethoxy-quinazolin-4-yl)-piperidin-4-ylmethyl ester] — 8.1-fold lower, 0.8 µM
- COc1cc2ncnc(N3CCC(C(=O)Nc4ccc(OC(C)C)cc4)CC3)c2cc1OC [Compound 23, 1-(6,7-Dimethoxy-quinazolin-4-yl)-piperidine-4-carboxylic acid (4-isopropoxy-phenyl)-amide] — 12-fold lower, 0.55 µM
- CC(C)c1ccc(NC(=O)OC2CCN(c3ncnc4ccccc34)C2)cc1 (stereo not shown) [Compound 24, (4-Isopropyl-phenyl)-carbamic acid 1-quinazolin-4-yl-pyrrolidin-3-yl ester] — within 1.5-fold, 5.5 µM
- COc1cc2ncc(C#N)c(N3CCC(NC(=O)Nc4ccc(C(C)C)cc4)C3)c2cc1OC (stereo not shown) [Compound 26, 1-[1-(3-Cyano-6,7-dimethoxy-quinolin-4-yl)-pyrrolidin-3-yl]-3-(4-isopropyl-phenyl)-urea] — 1.7-fold higher, 10.9 µM
- CC(C)c1ccc(NC(=O)NC2CCN(c3ccnc4ccccc34)C2)cc1 (stereo not shown) [Compound 27, (4-Isopropyl-phenyl)-3-(1-quinolin-4-yl)-pyrrolidin-3-yl-urea] — within 1.5-fold, 7.7 µM
- COc1cc2ncnc(N3CCCC(NC(=O)Nc4ccc(C(C)C)cc4)C3)c2cc1OC (stereo not shown) [Compound 28, 1-[1-(6,7-Dimethoxy-quinazolin-4-yl)-piperidin-3-yl]-3-(4-isopropyl-phenyl)-urea] — 22-fold lower, 0.3 µM
- COc1cc2ncc(C#N)c(N3CCC(NC(=O)Nc4ccc(OC(C)C)cc4)C3)c2cc1OC (stereo not shown) [Compound 29, 1-[1-(3-Cyano-6,7-dimethoxy-quinolin-4-yl)-pyrrolidin-3-yl]-3-(4-isopropoxy-phenyl)-urea] — 1.6-fold higher, 10.3 µM
- COc1cc2ncnc(N3CCCC(OC(=O)Nc4ccc(C(C)C)cc4)C3)c2cc1OC (stereo not shown) [Compound 31, (4-Isopropyl-phenyl)-carbamic acid 1-[1-(6,7-dimethoxy-quinazolin-4-yl)-piperidin-3-yl]ester] — 32-fold lower, 0.2 µM
- COc1cc2ncc(C#N)c(N3CCC(OC(=O)Nc4ccc(OC(C)C)cc4)C3)c2cc1OC (stereo not shown) [Compound 32, (4-Isopropoxy-phenyl)-carbamic acid 1-(3-cyano-6,7-dimethoxy-quinolin-4-yl)-pyrrolidin-3-yl ester] — within 1.5-fold, 5.3 µM
- COc1cc2ncnc(N3CCCCC3COC(=O)Nc3ccc(C(C)C)cc3)c2cc1OC (stereo not shown) [Compound 33, (4-Isopropyl-phenyl)-carbamic acid 1-(6,7-dimethoxy-quinazolin-4-yl)-piperidin-2-ylmethyl ester] — within 1.5-fold, 5 µM
- CC(C)c1ccc(NC(=O)OC2CCN(c3ccnc4ccccc34)C2)cc1 (stereo not shown) [Compound 34] — within 1.5-fold, 7.6 µM
- COc1cc2ncnc(N3CCC(NC(=O)Cc4ccc(C(C)C)cc4)C3)c2cc1OC (stereo not shown) [Compound 35, N-[1-(6,7-Dimethoxy-quinazolin-4-yl)-pyrrolidin-3-yl]-2-(4-isopropyl-phenyl)-acetamide] — the same, 6.5 µM
- COc1cc2ncc(C#N)c(N3CCC(OC(=O)Nc4ccc(C(C)C)cc4)C3)c2cc1OC (stereo not shown) [Compound 37, (4-Isopropyl-phenyl)-carbamic acid 1-(3-cyano-6,7-dimethoxy-quinolin-4-yl)-pyrrolidin-3-yl ester] — within 1.5-fold, 8.48 µM
- CC(C)Oc1ccc(NC(=O)NC2CCN(c3ccnc4ccccc34)C2)cc1 (stereo not shown) [Compound 38, (4-Isopropoxy-phenyl)-3-(1-quinolin-4-yl)-pyrrolidin-3-yl-urea] — 4.1-fold higher, 26.8 µM
- CC(C)Oc1ccc(NC(=O)OC2CCN(c3ccnc4ccccc34)C2)cc1 (stereo not shown) [Compound 39] — within 1.5-fold, 9.1 µM
- COc1cc2ncc(C#N)c(N3CCC(OC(=O)Nc4ccc(OC(C)C)cc4)CC3)c2cc1OC [Compound 40, (4-Isopropoxy-phenyl)-carbamic acid 1-(3-cyano-6,7-dimethoxy-quinolin-4-yl)-piperidin-4-yl ester] — 1.8-fold higher, 11.8 µM
- CC(C)Oc1ccc(NC(=O)OC2CCN(c3ccnc4ccccc34)CC2)cc1 [Compound 41] — 2.2-fold higher, 14 µM
- COc1cc2ncc(C#N)c(N3CCC(OC(=O)Nc4ccc(C(C)C)cc4)CC3)c2cc1OC [Compound 42, (4-Isopropyl-phenyl)-carbamic acid 1-(3-cyano-6,7-dimethoxy-quinolin-4-yl)-piperidin-4-yl ester] — higher, > 42 µM
- COc1cc2ncnc(N3CCC(NC(=O)Nc4ccc(N5CCOCC5)cc4)C3)c2cc1OC (stereo not shown) [Compound 43, 1-[1-(6,7-Dimethoxy-quinazolin-4-yl)-pyrrolidin-3-yl]-3-(4-morpholin-4-yl-phenyl)-urea] — 6.2-fold higher, 40.6 µM
- COc1cc2ncnc(N3CCC(NC(=O)Nc4ccc(OC5CCC5)nc4)C3)c2cc1OC (stereo not shown) [Compound 44, 1-(6-Cyclobutoxy-pyridin-3-yl)-3-[1-(6,7-dimethoxy-quinazolin-4-yl)-pyrrolidin-3-yl]-urea] — within 1.5-fold, 4.88 µM
- COc1cc2ncnc(N3CCC(NC(=O)Nc4ccc(OC5CCCC5)nc4)C3)c2cc1OC (stereo not shown) [Compound 45, 1-(6-Cyclopentyloxy-pyridin-3-yl)-3-[1-(6,7-dimethoxy-quinazolin-4-yl)-pyrrolidin-3-yl]-urea] — 1.8-fold higher, 11.8 µM
